Source: patent US20080027075A1, “Quaternary Amino-Function Chalcones” (Lica Pharmaceuticals A/S, priority 2003, published 2008)
Converted amounts (≈) assume the structure as drawn. “Also recorded” adds a separate entry of the source.

Key:
[1] = tested on: Staphylococcus aureus ATCC33591 (resistant to methicillin); experiment: MIC determination in broth microdilution assay; format: cell-based; settings: B: Staphylococcus aureus ATCC33591 (resistant to methicillin); MH-broth microdilution
[2] = tested on: Enterococcus faecalis ATCC29212; experiment: MIC determination in broth microdilution assay; format: cell-based; settings: D: Enterococcus faecalis ATCC29212; MH-broth microdilution
[3] = tested on: Staphylococcus aureus ATCC29213; experiment: MIC determination in broth microdilution assay; format: cell-based; settings: A: Staphylococcus aureus ATCC29213; MH-broth microdilution
[4] = tested on: Enterococcus faecium #17501 (vancomycin-resistant clinical isolate); experiment: MIC determination in broth microdilution assay; format: cell-based; settings: E: Enterococcus faecium #17501 vancomycin-resistant clinical isolate; MH-broth microdilution
[5] = tested on: Staphylococcus intermedius #2357 (clinical isolate from the Copenhagen area); experiment: MIC determination in broth microdilution assay; format: cell-based; settings: C: Staphylococcus intermedius #2357 clinical isolate; MH-broth microdilution
[6] = tested on: Streptococcus pneumoniae #998 (clinical isolate); experiment: MIC determination in broth microdilution assay; format: cell-based; settings: F: Streptococcus pneumoniae #998 clinical isolate; MH-broth microdilution
S. aureus ATCC29213 = experiment: Killing curve determination (time-kill curve); format: cell-based, Staphylococcus aureus; settings: for bactericidal activity (CFU counts per ml in time-kill curve): concentrations above the MIC; for dependence of the bactericidal action: time-kill curve
[7] = tested on: Eschericia coli ATCC25922; experiment: MIC determination in broth microdilution assay; format: cell-based; settings: for MIC: G: Eschericia coli ATCC25922, MH-broth microdilution; for activity against Eschericia coli (in words): Gram-negative prototype, Table 1
[8] = tested on: panel of 10 different non-fastidious bacteria growing aerobically; experiment: Activity against non-fastidious bacteria (panel, discussed in words); format: cell-based; settings: for activity against pathogenic Gram-positive bacteria (in words): Gram-positive non-fastidious bacteria, comparison with Licochalcone A
S. aureus E2371 = experiment: Killing curve determination (time-kill curve); format: cell-based, Staphylococcus aureus; settings: for bactericidal activity (CFU counts per ml in time-kill curve): concentrations above the MIC; for dependence of the bactericidal action: time-kill curve
[9] = MIC of D-001 quoted in the pharmacokinetic profile (strain not named); format: cell-based
[10] = tested on: panel of six strains Helicobacter pylori, includes strains resistant to metronidazole; experiment: MIC determination against Helicobacter pylori (agar dilution); settings: 72 h, read-out: MICs against Helicobacter pylori
[11] = Pharmacokinetic studies, intravenous, mice; format: in vivo, female NMRI mice
Method: Evaluation of the pharmacokinetic properties of the compounds was done using female NMRI mice (weighing app. 30 g). Test articles were administrated intravenously and Samples of serum were taken at defined time-points. Standards and QC-samples in plasma were prepared and the serum concentrations of the test compounds quantified by HPLC-MS. Prior to analysis, proteins were precipitated by deluding the samples (1:1) (v/v) with 100% acetonitrile followed by centrifugation at 14,000 rpm in 10 min. The supernatant was used for the analysis. A Waters Alliance HPLC-system (Milford, Mass., USA) was coupled to a Quatro Micro triple quadropl mass spectrometer (Micromass, Manchester, UK) operating in positive (ESI) mode. Separation was performed on a XTerra MS C18 column (150*2.1 mm I.D., 3,5 μm particle size) (Waters Milford, Mass., USA). Mobile phase A: 0.1% (v/v) formic acid or 10 mM ammonium acetate pH-adjusted to 9.5 in MilliQ-water, mobile phase B: 100% methanol. The gradient was as follows: 0 min=70% A-30% B, 0-10 min. a linear gradient to 10% A and 90% B this was maintained till 11 min, 11-13 linear gradient to 70% A and 30% B this was maintained till 18 min. The flow rate was 0.20 ml/min, injection volume 10 μl.

[12] = tested on: panel of anaerobic bacteria (Bacteroides fragilis, Clostridium perfringens, Clostridium difficele); format: cell-based; settings: single concentration of compound (100 μM); agar dilution

COc1ccc(C(=O)/C=C/c2cc(-c3ccccc3OC)ccc2N2CCN(C)CC2)c(F)c1 [SM010, (E)-1-(2-Fluoro-4-methoxy-phenyl)-3-[2′-methoxy-4-(4-methyl-piperazin-1-yl)-biphenyl-3-yl]-propenone]
MIC [1]: 9.4 µM (≈ 4.33 µg/mL)
MIC [2]: 18.8 µM (≈ 8.66 µg/mL)
MIC [3]: 4.7 µM (≈ 2.16 µg/mL)
MIC [4]: 9.4 µM (≈ 4.33 µg/mL)
MIC [5]: 9.4 µM (≈ 4.33 µg/mL)
MIC [6]: 37.5 µM (≈ 17.3 µg/mL)

COc1ccc(C(=O)/C=C/c2cc(-c3cc(C)cc(C)c3)ccc2OCC[N+](C)(C)C)c(C[N+](C)(C)C)c1.[I-].[I-] [D-007]
MIC [1]: 18.8 µM
MIC [2]: 150 µM
MIC [3]: 18.8 µM
MIC [4]: 75 µM
bactericidal activity (CFU counts per ml in time-kill curve) (S. aureus ATCC29213): bactericidal
dependence of the bactericidal action (S. aureus ATCC29213): primarily dependent on incubation time; also recorded: predominantly dependent on the time of incubation with the compound
MIC [5]: 9.4 µM
MIC [6]: 75 µM
MIC [7]: 75 µM

CCCCN(CCCC)c1ccc(/C=C/C(=O)c2cccc(C[N+](C)(C)C)c2)cc1 [D-005, {3-[3-(4-Dibutylamino-phenyl)-acryloyl]-benzyl}-trimethyl-ammonium]
MIC [1]: 9.4 µM
MIC [2]: 18.8 µM
activity against pathogenic Gram-positive bacteria (in words) [8]: increased potency
MIC [3]: 4.7 µM
MIC [4]: 9.4 µM
bactericidal activity (CFU counts per ml in time-kill curve) (S. aureus ATCC29213): bactericidal
dependence of the bactericidal action (S. aureus ATCC29213): primarily dependent on the concentration of the test compound
MIC [5]: 4.7 µM
MIC [6]: 37.5 µM
MIC [7]: 75 µM

CCCCN(CCCC)c1ccc(/C=C/C(=O)c2cccc(CN(C)C)c2)cc1 [SM011, (E)-3-(4-Dibutylamino-phenyl)-1-(3-dimethylaminomethyl-phenyl)-propenone]
MIC [1]: 9.4 µM (≈ 3.69 µg/mL)
MIC [2]: 9.4 µM (≈ 3.69 µg/mL)
MIC [3]: 9.4 µM (≈ 3.69 µg/mL)
MIC [4]: 9.4 µM (≈ 3.69 µg/mL)
MIC [5]: 9.4 µM (≈ 3.69 µg/mL)
MIC [6]: 18.8 µM (≈ 7.38 µg/mL)

C[N+](C)(C)CCOc1ccc(-c2ccccc2)cc1/C=C/C(=O)c1cccc(C[N+](C)(C)C)c1.[I-].[I-] [D-006]
MIC [1]: 18.8 µM
MIC [2]: 75 µM
MIC [3]: 18.8 µM
MIC [4]: 37.5 µM
bactericidal activity (CFU counts per ml in time-kill curve) (S. aureus E2371): bactericidal
dependence of the bactericidal action (S. aureus E2371): primarily dependent on the concentration of the test compound
MIC [5]: 18.8 µM
MIC [6]: 150 µM

COc1ccc(C(=O)/C=C/c2cc(-c3ccccc3OC)ccc2N2CC[N+](C)(C)CC2)c(F)c1 [D-004, 4-{3-[3-(2-Fluoro-4-methoxy-phenyl)-3-oxo-propenyl]-2′-methoxy-biphenyl-4-yl}-1,1-dimethyl-piperazin-1-ium]
MIC [1]: 9.4 µM
MIC [2]: 18.8 µM
MIC [3]: 18.8 µM
MIC [4]: 18.8 µM
MIC [5]: 9.4 µM
MIC [6]: 37.5 µM
MIC [7]: 75 µM

Cc1cc(C)cc(-c2ccc(OCC[N+](C)(C)C)c(/C=C/C(=O)c3ccc(N)cc3)c2)c1 [D-002, (2-{3-[3-(4-Amino-phenyl)-3-oxo-propenyl]-3′,5′-dimethyl-biphenyl-4-yloxy}-ethyl)-trimethyl-ammonium; iodide]
MIC [1]: 9.4 µM
MIC [2]: 18.8 µM
MIC [3]: 9.4 µM
MIC [4]: 18.8 µM
MIC [5]: 9.4 µM
MIC [6]: 18.8 µM
MIC [7]: 75 µM

COc1ccc(C(=O)/C=C/c2ccccc2)cc1 [4′-MC, 4′methoxy chalcone, reference compound]
antibacterial effect (in words) ([8]; whole panel of non-fastidious bacteria): no antibacterial effect at all

CN(C)CCOc1ccc(-c2ccccc2)cc1/C=C/C(=O)c1cccc(CN(C)C)c1 [SM012, (E)-3-[4-(2-Dimethylamino-ethoxy)-biphenyl-3-yl]-1-(3-dimethylaminomethyl-phenyl)-propenone]
MIC [1]: 18.8 µM (≈ 8.06 µg/mL)
MIC [2]: 18.8 µM (≈ 8.06 µg/mL)
MIC [3]: 18.8 µM (≈ 8.06 µg/mL)
MIC [4]: 18.8 µM (≈ 8.06 µg/mL)
MIC [5]: 18.8 µM (≈ 8.06 µg/mL)
MIC [6]: 18.8 µM (≈ 8.06 µg/mL)
MIC [7]: 37.5 µM (≈ 16.1 µg/mL)

C=CC(C)(C)c1cc(/C=C/C(=O)c2ccc(O)cc2)c(OC)cc1O [LicA, Licochalcone A]
MIC [1]: 37.5 µM (≈ 12.7 µg/mL)
MIC [2]: 37.5 µM (≈ 12.7 µg/mL)
activity against pathogenic Gram-positive bacteria (in words) [8]: moderate bactericidal activity
MIC [3]: 37.5 µM (≈ 12.7 µg/mL)
MIC [4]: 37.5 µM (≈ 12.7 µg/mL)
MIC [5]: 37.5 µM (≈ 12.7 µg/mL)
MIC [6]: 75 µM (≈ 25.4 µg/mL)
activity against Eschericia coli (in words) [7]: only modest or no activity

COc1ccc(C(=O)/C=C/c2cc(-c3cc(C)cc(C)c3)ccc2OCC[N+](C)(C)C)c(Cl)c1.[I-] [D-001, (2-{3-[3-(2-Chloro-4-methoxy-phenyl)-3-oxo-propenyl]-3′,5′-dimethyl-biphenyl-4-yloxy}-ethyl)-trimethyl-ammonium; iodide]
MIC [1]: 4.7 µM
MIC [2]: 4.7 µM
MIC [9]: approximately 1 μg/mi
activity against pathogenic Gram-positive bacteria (in words) [8]: increased potency
MIC [10]: 50 to 100 µM
MIC [3]: 2.4 µM
MIC [4]: 4.7 µM
Cmax ([11]; female, NMRI, mouse, serum, iv, single i.v. dose of 5 mg/ml): 126 µg/mL
volume of distribution ([11]; i.v., as indicated by the plasma concentration): very low
activity against anaerobic bacteria [12]: activity against all microorganisms within the test panel
MIC [5]: 2.4 µM
MIC [6]: 18.8 µM
MIC [7]: 37.5 µM

Cc1cc(C)cc(-c2ccc(OCC[N+](C)(C)C)c(/C=C/C(=O)c3ccccc3N)c2)c1.[I-] [D-003, (2-{3-[3-(2-Amino-phenyl)-3-oxo-propenyl]-3′,5′-dimethyl-biphenyl-4-yloxy}-ethyl)-trimethyl-ammonium; iodide]
MIC [1]: 4.7 µM
MIC [2]: 4.7 µM
MIC [3]: 4.7 µM
MIC [4]: 4.7 µM
bactericidal activity (CFU counts per ml in time-kill curve) (S. aureus E2371): bactericidal
dependence of the bactericidal action (S. aureus E2371): primarily dependent on the concentration of the test compound; also recorded: predominantly dependent on the concentration of the compound
MIC [5]: 2.4 µM
MIC [6]: 18.8 µM
MIC [7]: 18.8 µM
activity against Eschericia coli (in words) [7]: high activity

COc1ccc(C(=O)/C=C/c2cc(-c3cc(C)cc(C)c3)ccc2OCCN(C)C)c(Cl)c1 [SM007, (E)-1-(2-Chloro-4-methoxy-phenyl)-3-[4-(2-dimethylamino-ethoxy)-3′,5′-dimethyl-biphenyl-3-yl]-propenone]
MIC [1]: 4.7 µM (≈ 2.18 µg/mL)
MIC [2]: 9.4 µM (≈ 4.36 µg/mL)
MIC [3]: 4.7 µM (≈ 2.18 µg/mL)
MIC [4]: 4.7 µM (≈ 2.18 µg/mL)
MIC [5]: 4.7 µM (≈ 2.18 µg/mL)
MIC [6]: 18.8 µM (≈ 8.72 µg/mL)

Cc1cc(C)cc(-c2ccc(OCCN(C)C)c(/C=C/C(=O)c3ccccc3N)c2)c1 [SM009, (E)-1-(2-Amino-phenyl)-3-[4-(2-dimethylamino-ethoxy)-3′,5′-dimethyl-biphenyl-3-yl]-propenone]
MIC [1]: 4.7 µM (≈ 1.95 µg/mL)
MIC [2]: 9.4 µM (≈ 3.9 µg/mL)
MIC [3]: 4.7 µM (≈ 1.95 µg/mL)
MIC [4]: 4.7 µM (≈ 1.95 µg/mL)
MIC [5]: 4.7 µM (≈ 1.95 µg/mL)
MIC [6]: 18.8 µM (≈ 7.79 µg/mL)

COc1ccc(C(=O)/C=C/c2cc(-c3cc(C)cc(C)c3)ccc2OCCN(C)C)c(CN(C)C)c1 [SM013, (E)-3-[4-(2-Dimethylamino-ethoxy)-3′,5′-dimethyl-biphenyl-3-yl]-1-(2-dimethylaminomethyl-4-methoxy-phenyl)-propenone]
MIC [1]: 9.4 µM (≈ 4.57 µg/mL)
MIC [2]: 4.7 µM (≈ 2.29 µg/mL)
MIC [3]: 4.7 µM (≈ 2.29 µg/mL)
MIC [4]: 4.7 µM (≈ 2.29 µg/mL)
MIC [5]: 18.8 µM (≈ 9.15 µg/mL)
MIC [6]: 4.7 µM (≈ 2.29 µg/mL)
MIC [7]: 75 µM (≈ 36.5 µg/mL)

Cc1cc(C)cc(-c2ccc(OCCN(C)C)c(/C=C/C(=O)c3ccc(N)cc3)c2)c1 [SM008, (E)-1-(4-Amino-phenyl)-3-[4-(2-dimethylamino-ethoxy)-3′,5′-dimethyl-biphenyl-3-yl]-propenone]
MIC [1]: 9.4 µM (≈ 3.9 µg/mL)
MIC [2]: 18.8 µM (≈ 7.79 µg/mL)
MIC [3]: 9.4 µM (≈ 3.9 µg/mL)
MIC [4]: 9.4 µM (≈ 3.9 µg/mL)
MIC [5]: 9.4 µM (≈ 3.9 µg/mL)
MIC [6]: 18.8 µM (≈ 7.79 µg/mL)
